{
  "source": "patent US10761088B2",
  "about": "“Method for identifying histone tail proteolysis” (University of Southern California, priority 2016, dated 2020)",
  "key": {"[1]": {"tested_on": "H3NT proteolysis in OCP-induced cells", "experiment": "H3NT cleavage in OCP-induced cells (Western blot of chromatin with H3CT antibody)", "assay_type": "cell-based", "details": "RANKL-induced primary mouse OCP cells; shRNA transduction or 10 nM MMP-9-INI or 1.6 μM C646 for 3 days prior to differentiation; versus control shRNA or DMSO"}, "[2]": {"tested_on": "Nfatc1, Lif and Xpr1 expression", "experiment": "RT-qPCR of osteoclastogenic genes Nfatc1, Lif and Xpr1 in 3-day OCP cells", "assay_type": "cell-based, mouse", "details": "3-day OCP-induced cells, with RANKL (FIG. 7B, 14)", "text": "FIGS. 7A-7D. […] Distribution of H3NT-cleaved genes dependent on MMP-9 for activation (light) or repression (black) in 3-day OCP-induced cells (right). […] Enrichments were plotted relative to non-induced control shRNA OCP cells (first column) (y-axis). Star indicates H3NT cleavage.\nFIG. 14. […] RT-qPCR was used to quantitatively measure fold expression changes (y-axis) of the osteoclastogenic genes Nfatc1, Lif and Xpr1 relative to non-induced control after normalization to β-actin expression.\nTo broadly examine the association between H3NT cleavage and gene expression, the RNA-Seq data was analyzed for the 1,233 H3NT-cleaved genes identified in control and MMP-9 depleted 3-day OCP-induced cells. […] To further investigate the MMP-9-dependent activation of these genes during osteoclastogenesis, RT-qPCR was performed in OCP cells transduced with a control or MMP-9-specific shRNA, or treated with DMSO control or a selective MMP-9 inhibitor, and cultured with or without RANKL for 3 days. […]\nqPCR was performed using PerfeCta® SYBR Green FastMix (Quanta BIOSCIENCES) and an iCycler IQ5 (Bio-Rad). […] Specificity of amplification was determined by melting curve analysis and all samples were run in triplicate with results averaged."}, "[3]": {"target": "T1, H3NT protease activity (MMP-9) of purified fractions #3-5 from 3-day OCP-induced cells (Mus musculus, UniProt P41245)", "T1 construct": "both the pro- and active-forms of MMP-9 were detected in the nuclear compartment of 1-day OCP-induced cells; endogenous in cells; host or cells: primary mouse (C57BL/6) bone-marrow-derived OCP cells induced with RANKL; nuclear extracts / lysates", "T1 sequence (P41245 108-730)": "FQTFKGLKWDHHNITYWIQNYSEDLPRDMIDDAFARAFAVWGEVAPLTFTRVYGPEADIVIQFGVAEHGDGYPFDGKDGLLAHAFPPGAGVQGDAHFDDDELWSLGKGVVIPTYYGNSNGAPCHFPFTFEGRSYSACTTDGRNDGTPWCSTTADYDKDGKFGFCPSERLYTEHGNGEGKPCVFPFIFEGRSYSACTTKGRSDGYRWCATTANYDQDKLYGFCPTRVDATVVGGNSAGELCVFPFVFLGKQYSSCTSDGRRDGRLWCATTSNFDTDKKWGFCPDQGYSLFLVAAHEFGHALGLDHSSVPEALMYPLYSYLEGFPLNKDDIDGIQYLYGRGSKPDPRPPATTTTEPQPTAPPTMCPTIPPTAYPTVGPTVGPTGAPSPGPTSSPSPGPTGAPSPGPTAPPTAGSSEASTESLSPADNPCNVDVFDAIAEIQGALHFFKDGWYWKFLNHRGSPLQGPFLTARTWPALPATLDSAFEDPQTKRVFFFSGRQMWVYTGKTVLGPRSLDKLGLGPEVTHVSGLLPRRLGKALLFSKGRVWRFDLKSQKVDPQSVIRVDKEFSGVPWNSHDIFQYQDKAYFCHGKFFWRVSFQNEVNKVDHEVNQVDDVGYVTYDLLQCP", "experiment": "In vitro H3NT cleavage assay of purified nuclear fractions #3-5 with protease inhibitors (rH3 substrate, Western blot with H3CT antibody)", "assay_type": "biochemical", "details": "fractions incubated with protease inhibitors, Western blot with H3CT antibody (FIG. 1D, 1E)", "text": "(§1) To identify the protease responsible for H3NT cleavage observed in preosteoclasts, nuclear extracts from 3-day OCP-induced cells were fractionated by a series of chromatography steps (FIG. 1C). An in vitro H3NT cleavage assay was developed using a recombinant H3 (rH3) substrate and Western blot analysis with the H3CT antibody to track and isolate nuclear fractions containing H3NT protease activity. […] These fractions were combined and fractionated on a Q-sepharose column where, again, H3NT protease activity was largely restricted to two sequential fractions, BR100 and BR200. The fractions were combined for glycerol gradient sedimentation resulting in the final purification of fractions (#3-5) containing H3NT protease activity. […]\n(§2) His-tagged proteins were generated in Rosetta 2 (DE3) pLysS E. coli (Novagen) and purified as previously described (Kim et al. 2008). […] Peptides were incubated with rMMP-9 at seven different concentrations (0, 25, 50, 100, 150, 200, and 250 µM) in cleavage buffer, the reactions stopped by adding 20 mM o-phenanthroline (Sigma) and peptide hydrolysis was measured by adding 5 mM fluorescamine followed by detection at λex 365 nm and λem 450 nm using a Plate Chameleon spectrofluorometer (Hidex). Kinetic parameters were determined by Michaelis-Menten analysis. […]"}, "recombinant H3 (rH3)": {"tested_on": "recombinant H3 (rH3)", "experiment": "In vitro H3NT cleavage assay using recombinant proteases", "assay_type": "biochemical", "details": "recombinant MMP-9, USP14, USP39 and DIM1 tested (FIG. 1G)", "text": "as §1, §2"}},
  "note": "“Also recorded” adds a separate entry of the source.",
  "data": [
    {"molecule": "CC1=NN(c2ccc(C(=O)O)cc2)C(=O)/C1=C\\c1ccc(-c2cc(C)c(C)cc2[N+](=O)[O-])o1", "note": "[selective CBP/p300 inhibitor, C646]", "values": [
      {"measurement": "H3NT proteolysis / cleavage in OCP-induced cells", "setting": "[1]", "result": "sustained impairment of H3NT proteolysis"}
    ]},
    {"molecule": "CCN(CC)Cc1cc(C)c(N(Cc2ccccc2)S(=O)(=O)c2ccc(OC)cc2)c(C(=O)NO)c1", "note": "[selective MMP-9 inhibitor]", "values": [
      {"measurement": "Nfatc1, Lif and Xpr1 activation (fold expression, normalized to β-actin)", "setting": "[2]", "result": "significantly impaired Nfatc1, Lif and Xpr1 activation"},
      {"measurement": "H3NT protease activity of purified fractions #3-5", "setting": "[3]", "result": "abolished H3NT proteolysis"},
      {"measurement": "H3NT proteolysis / cleavage in OCP-induced cells", "setting": "[1]", "result": "continuous impairment of H3NT cleavage; also recorded: Ablation of H3NT cleavage"}
    ]},
    {"molecule": "rMMP-9: His-tagged recombinant MMP-9 (aa1115-730 as printed) purified from E. coli inclusion bodies and refolded", "values": [
      {"measurement": "H3NT protease activity of recombinant proteases", "setting": "recombinant H3 (rH3)", "result": "possessed H3NT protease activity"}
    ]}
  ]
}
